Test results published in patent US20240041830A1, “CIRCULATING BIOMARKERS OF RESPONSE TO PD-1/PD-L1 BLOCKADE AND GSK-3 INHIBITION” (Brown University, priority 2022, published 2024).

Assays:
[1] = tested on: HCT-116; experiment: Western blot analysis; type: cell-based, human; conditions: 100 ng/mL and 250 ng/mL IFN-γ
Method: (§1) Pyroptosis assay. Recombinant Human TNF-α (Cat #300-01A, PeproTech, Rocky Hill, NJ, USA) and Recombinant Human IFN-γ (Cat #300-02, PeproTech, Rocky Hill, NJ, USA) were purchased for use in western blot analysis while rhTRAIL was generated in-house. See Kim et al., J. Biol. Chem., 279, 40044-40052 (2004).
(§2) Western blot analysis. Cells were plated in a 6-well plate and incubated overnight before the spent media was replaced with drugged media. Drug treatment lasted for indicated durations. Protein was extracted using radioimmunoprecipitation (RIPA) assay buffer (Cat #R0278, Sigma-Aldrich, St. Louis, MO, USA) containing cOmplete™, Mini, EDTA-free Protease Inhibitor Cocktail (Cat #4693159001, Roche, Basel, Switzerland) from sub-confluent cells. Denaturing sample buffer was added, samples were boiled at 95° C. for ten minutes, and an equal amount of protein lysate was electrophoresed through NuPAGE™ 4 to 12%, bis-Tris, 1.5 mm, Mini Protein Gels (Invitrogen, Waltham, MA, USA) then transferred to PVDF membranes. The PVDF membrane was blocked with 5% non-fat milk (Sigma-Aldrich, St. Louis, MO, USA) in 1× TTBS. Primary antibodies were incubated with the transferred PVDF membrane in blocking buffer at 4° C. overnight. Secondary antibodies included Goat anti-Rabbit IgG (H+L) Secondary Antibody, HRP (Cat #31460, Invitrogen, Waltham, MA, USA), and Goat anti-Mouse IgG (H+L) Secondary Antibody, HRP (Cat #31430, Invitrogen, Waltham, MA, USA). The signal was detected using Pierce™ ECL Western Blotting Substrate (Cat #32106, Thermo Scientific, Waltham, MA, USA) and a Syngene Imaging System (RRID: SCR_015770).
(§3) Elraglusib uprequlates tumor cell PD-L1 and proapoptotic pathway expression as well as downregulates immunosuppressive/angiogenic protein expression and pro-survival pathways. The inventors performed Western blot analyses on colorectal cancer cells (HCT-116, HT-29) treated with elraglusib over a 72-hour time course. […] The inventors observed increases in PD-L1 expression as the treatment duration increased. To further elucidate the elraglusib-mediated effects on tumor cell survival, the inventors probed for survival factors Bcl-2 and Survivin and noted decreases in protein expression in both cell lines, especially at the later timepoints (forty-eight hours, seventy-two hours). […] HCT116 cells are heterozygous for β-catenin, harboring one wild-type allele and one mutant allele with inactivation of one of the residues phosphorylated by GSK-3β that is frequently mutated in tumors. Kaler, Augenlicht, & Klampfer, PLoS ONE, 7, e45462 (2012). HT-29, KM12C, and SW480 cells harbor APC mutations. Rowan et al., Proc. Natl. Acad. Sci. USA, 97, 3352 (2000).

[2] = tested on: HT-29; experiment: Western blot analysis; type: cell-based, human; conditions: 100 ng/mL and 250 ng/mL IFN-γ
Method: as §1, §2, §3

IFN-γ: Recombinant Human IFN-γ (PeproTech) used in western blot analysis
gasdermin B expression [1]: increase
gasdermin B expression [2]: increase
